Source: ChEMBL document CHEMBL5257089, “Gamabufotalin Induces Apoptosis and Cytoprotective Autophagy through the mTOR Signaling Pathway in Hepatocellular Carcinoma” (J Nat Prod, 2023)
Activity calls are given as the source filed them. No cut-off for these calls is given here.

Assays:
Hep 3B2 [1] = experiment: Induction of apoptosis in human Hep3B cells assessed as viable cells at 10 nM incubated for 48 hrs by Annexin V-FITC/PI staining based flow cytometry method (Rvb =95.7%); type: functional; settings: read-out: Activity
Hep 3B2 [2] = experiment: Induction of apoptosis in human Hep3B cells assessed as early apoptotic cells at 10 nM measured after 48 hrs by Annexin V-FITC/PI staining based flow cytometry method (reference value: 1.3%); type: functional
Hep 3B2 [3] = experiment: Induction of apoptosis in human Hep3B cells assessed as late apoptotic cells at 10 nM incubated for 48 hrs by Annexin V-FITC/PI staining based flow cytometry method (reference value: 2.2%); type: functional
Hep 3B2 [4] = experiment: Induction of apoptosis in human Hep3B cells assessed as necrotic cells at 10 nM incubated for 48 hrs by Annexin V-FITC/PI staining based flow cytometry method (reference value: 0.7%); type: functional
Hep 3B2 [5] = experiment: Induction of apoptosis in human Hep3B cells assessed as viable cells at 10 nM incubated for 48 hrs in presence of gamabufotalin by Annexin V-FITC/PI staining based flow cytometry method (Rvb =95.7%); type: functional; settings: read-out: Activity
Hep 3B2 [6] = experiment: Induction of apoptosis in human Hep3B cells assessed as early apoptotic cells at 10 nM measured after 48 hrs in presence of gamabufotalin by Annexin V-FITC/PI staining based flow cytometry method (reference value: 1.3%); type: functional
Hep 3B2 [7] = experiment: Induction of apoptosis in human Hep3B cells assessed as late apoptotic cells at 10 nM incubated for 48 hrs in presence of gamabufotalin by Annexin V-FITC/PI staining based flow cytometry method (reference value: 2.2%); type: functional
Hep 3B2 [8] = experiment: Induction of apoptosis in human Hep3B cells assessed as necrotic cells at 10 nM incubated for 48 hrs in presence of gamabufotalin by Annexin V-FITC/PI staining based flow cytometry method (reference value: 0.7%); type: functional
Huh-7 [9] = experiment: Induction of apoptosis in human Huh-7 cells assessed as viable cells at 10 nM incubated for 48 hrs by Annexin V-FITC/PI staining based flow cytometry method (reference value: 90.0%); type: functional; settings: read-out: Activity
Huh-7 [10] = experiment: Induction of apoptosis in human Huh-7 cells assessed as early apoptotic cells at 10 nM incubated for 48 hrs by Annexin V-FITC/PI staining based flow cytometry method (reference value: 4.3%); type: functional
Huh-7 [11] = experiment: Induction of apoptosis in human Huh-7 cells assessed as late apoptotic cells at 10 nM incubated for 48 hrs by Annexin V-FITC/PI staining based flow cytometry method (reference value: 3.8%); type: functional
Huh-7 [12] = experiment: Induction of apoptosis in human Huh-7 cells assessed as necrotic cells at 10 nM incubated for 48 hrs by Annexin V-FITC/PI staining based flow cytometry method (reference value: 1.9%); type: functional
Huh-7 [13] = experiment: Induction of apoptosis in human Huh-7 cells assessed as viable cells at 10 nM incubated for 48 hrs in presence of gamabufotalin by Annexin V-FITC/PI staining based flow cytometry method (reference value: 90.0%); type: functional; settings: read-out: Activity
Huh-7 [14] = experiment: Induction of apoptosis in human Huh-7 cells assessed as early apoptotic cells at 10 nM incubated for 48 hrs in presence of gamabufotalin by Annexin V-FITC/PI staining based flow cytometry method (reference value: 4.3%); type: functional
Huh-7 [15] = experiment: Induction of apoptosis in human Huh-7 cells assessed as late apoptotic cells at 10 nM incubated for 48 hrs in presence of gamabufotalin by Annexin V-FITC/PI staining based flow cytometry method (reference value: 3.8%); type: functional
Huh-7 [16] = experiment: Induction of apoptosis in human Huh-7 cells assessed as necrotic cells at 10 nM incubated for 48 hrs in presence of gamabufotalin by Annexin V-FITC/PI staining based flow cytometry method (reference value: 1.9%); type: functional
Hep 3B2 [17] = experiment: Induction of apoptosis in human Hep3B cells assessed as upregulation of cleaved PARP level at 10 uM incubated for 48 hrs in presence of gamabufotalin by immunoblot analysis; type: functional, cell-based
Hep 3B2 [18] = experiment: Induction of apoptosis in human Hep3B cells assessed as upregulation of PARP level at 10 uM incubated for 48 hrs in presence of gamabufotalin by immunoblot analysis; type: functional, cell-based
Hep 3B2 [19] = experiment: Induction of apoptosis in human Hep3B cells assessed as upregulation of cleaved caspase-3 level at 10 uM incubated for 48 hrs in presence of gamabufotalin by immunoblot analysis; type: functional, cell-based
Hep 3B2 [20] = experiment: Induction of apoptosis in human Hep3B cells assessed as upregulation of caspase-3 level at 10 uM incubated for 48 hrs in presence of gamabufotalin by immunoblot analysis; type: functional, cell-based
Hep 3B2 [21] = experiment: Induction of apoptosis in human Hep3B cells assessed as upregulation of bax level at 10 uM incubated for 48 hrs in presence of gamabufotalin by immunoblot analysis; type: functional, cell-based
Hep 3B2 [22] = experiment: Induction of apoptosis in human Hep3B cells assessed as reduction in bcl-2 level at 10 uM incubated for 48 hrs in presence of gamabufotalin by immunoblot analysis; type: functional, cell-based
Huh-7 [23] = experiment: Induction of apoptosis in human Huh-7 cells assessed as upregulation of cleaved PARP level at 10 uM incubated for 48 hrs in presence of gamabufotalin by immunoblot analysis; type: functional, cell-based
Huh-7 [24] = experiment: Induction of apoptosis in human Huh-7 cells assessed as upregulation of PARP level at 10 uM incubated for 48 hrs in presence of gamabufotalin by immunoblot analysis; type: functional, cell-based
Huh-7 [25] = experiment: Induction of apoptosis in human Huh-7 cells assessed as upregulation of cleaved caspase-3 level at 10 uM incubated for 48 hrs in presence of gamabufotalin by immunoblot analysis; type: functional, cell-based
Huh-7 [26] = experiment: Induction of apoptosis in human Huh-7 cells assessed as upregulation of caspase-3 level at 10 uM incubated for 48 hrs in presence of gamabufotalin by immunoblot analysis; type: functional, cell-based
Huh-7 [27] = experiment: Induction of apoptosis in human Huh-7 cells assessed as upregulation of bax level at 10 uM incubated for 48 hrs in presence of gamabufotalin by immunoblot analysis; type: functional, cell-based
Huh-7 [28] = experiment: Induction of apoptosis in human Huh-7 cells assessed as reduction in bcl-2 level at 10 uM incubated for 48 hrs in presence of gamabufotalin by immunoblot analysis; type: functional, cell-based
Hep 3B2 [29] = experiment: Induction of autophagy in human Hep3B cells harbouring mCherry-egfp-LC3 assessed as reduction in yellow puncta ratio at 10 nM incubated for 15 mins in presence of gamabufotalin by laser scanning confocal microscopic analysis; type: functional, cell-based
Hep 3B2 [30] = experiment: Induction of autophagy in human Hep3B cells harbouring mCherry-egfp-LC3 assessed as reduction in red puncta ratio at 10 nM incubated for 15 mins in presence of gamabufotalin by laser scanning confocal microscopic analysis; type: functional, cell-based
Hep 3B2 [31] = experiment: Induction of autophagy in human Hep3B cells assessed as reduction in autophagic vesicles at 10 nM incubated for 48 hrs in presence of gamabufotalin by transmission electron microscopy based analysis; type: functional, cell-based
Huh-7 [32] = experiment: Induction of autophagy in human Huh-7 cells harbouring mCherry-egfp-LC3 assessed as reduction in yellow puncta ratio at 10 nM incubated for 15 mins in presence of gamabufotalin by laser scanning confocal microscopic analysis; type: functional, cell-based
Huh-7 [33] = experiment: Induction of autophagy in human Huh-7 cells harbouring mCherry-egfp-LC3 assessed as reduction in red puncta ratio at 10 nM incubated for 15 mins in presence of gamabufotalin by laser scanning confocal microscopic analysis; type: functional, cell-based
Huh-7 [34] = experiment: Induction of autophagy in human Huh-7 cells assessed as reduction in autophagic vesicles at 10 nM incubated for 48 hrs in presence of gamabufotalin by transmission electron microscopy based analysis; type: functional, cell-based
Hep 3B2 [35] = experiment: Induction of autophagy in human Hep3B cells assessed as restoration of mTOR phosphorylation expression at 10 uM incubated for 48 hrs in presence of gamabufotalin by immunoblot analysis; type: functional, cell-based
Hep 3B2 [36] = experiment: Induction of autophagy in human Hep3B cells assessed as restoration of ULK1 phosphorylation expression at 10 uM incubated for 48 hrs in presence of gamabufotalin by immunoblot analysis; type: functional, cell-based
Huh-7 [37] = experiment: Induction of autophagy in human Huh-7 cells assessed as restoration of mTOR phosphorylation expression at 10 uM incubated for 48 hrs in presence of gamabufotalin by immunoblot analysis; type: functional, cell-based
Huh-7 [38] = experiment: Induction of autophagy in human Huh-7 cells assessed as restoration of ULK1 phosphorylation expression at 10 uM incubated for 48 hrs in presence of gamabufotalin by immunoblot analysis; type: functional, cell-based
Hep 3B2 [39] = experiment: Induction of autophagy in human Hep3B cells assessed as upregulation of p62 at 10 uM incubated for 48 hrs in presence of gamabufotalin by immunoblot analysis; type: functional, cell-based
Huh-7 [40] = experiment: Induction of autophagy in human Huh-7 cells assessed as upregulation of p62 at 10 uM incubated for 48 hrs in presence of gamabufotalin by immunoblot analysis; type: functional, cell-based
Hep 3B2 [41] = experiment: Induction of autophagy in human Hep3B cells assessed as downregulation of LC3II/LC3I ratio at 10 uM incubated for 48 hrs in presence of gamabufotalin by immunoblot analysis; type: functional, cell-based
Huh-7 [42] = experiment: Induction of autophagy in human Huh-7 cells assessed as downregulation of LC3II/LC3I ratio at 10 uM incubated for 48 hrs in presence of gamabufotalin by immunoblot analysis; type: functional, cell-based

O=[N+]([O-])c1ccc(Nc2nc(N3CCOCC3)nc(N3CCOCC3)n2)cc1
viability at 0.01 µM (Hep 3B2 [1]): 94%
Activity (Hep 3B2 [2]): 2.5%
Activity (Hep 3B2 [3]): 3.4%
Activity (Hep 3B2 [4]): 0.1%
viability at 0.01 µM (Hep 3B2 [5]): 67.2%
Activity (Hep 3B2 [6]): 10.9%
Activity (Hep 3B2 [7]): 20.2%
Activity (Hep 3B2 [8]): 1.7%
viability at 0.01 µM (Huh-7 [9]): 92.6%
Activity (Huh-7 [10]): 3.8%
Activity (Huh-7 [11]): 2.9%
Activity (Huh-7 [12]): 0.7%
viability at 0.01 µM (Huh-7 [13]): 76.8%
Activity (Huh-7 [14]): 14.9%
Activity (Huh-7 [15]): 6.6%
Activity (Huh-7 [16]): 1.7%
Activity (Hep 3B2 [17]): Active
Activity (Hep 3B2 [18]): Active
Activity (Hep 3B2 [19]): Active
Activity (Hep 3B2 [20]): Active
Activity (Hep 3B2 [21]): Active
Activity (Hep 3B2 [22]): Active
Activity (Huh-7 [23]): Active
Activity (Huh-7 [24]): Active
Activity (Huh-7 [25]): Active
Activity (Huh-7 [26]): Active
Activity (Huh-7 [27]): Active
Activity (Huh-7 [28]): Active
Activity (Hep 3B2 [29]): Active
Activity (Hep 3B2 [30]): Active
Activity (Hep 3B2 [31]): Active
Activity (Huh-7 [32]): Active
Activity (Huh-7 [33]): Active
Activity (Huh-7 [34]): Active
Activity (Hep 3B2 [35]): Active
Activity (Hep 3B2 [36]): Active
Activity (Huh-7 [37]): Active
Activity (Huh-7 [38]): Active
Activity (Hep 3B2 [39]): Active
Activity (Huh-7 [40]): Active
Activity (Hep 3B2 [41]): Active
Activity (Huh-7 [42]): Active
